From ChEMBL document CHEMBL1649156, “Antianaerobic activity of sulopenem compared to six other agents” (2009)

Experiments:
Format in all cases: functional
Fusobacterium varium = test: Antimicrobial activity in Fusobacterium varium by CLSI agar dilution method in presence of Sulbactam
Clostridium butyricum = test: Antimicrobial activity in Clostridium butyricum by CLSI agar dilution method in presence of Sulbactam
[1] = tested on: Peptoniphilus asaccharolyticus; test: Antimicrobial activity in Peptoniphilus asaccharolyticus by CLSI agar dilution method in presence of Sulbactam
Bacteroides ovatus = test: Antimicrobial activity in Bacteroides ovatus by CLSI agar dilution method in presence of Sulbactam
Prevotella denticola = test: Antimicrobial activity in Prevotella denticola by CLSI agar dilution method in presence of Sulbactam
Clostridium sp. = test: Antimicrobial activity in Clostridium sp. by CLSI agar dilution method in presence of Sulbactam
Finegoldia magna = test: Antimicrobial activity in Finegoldia magna by CLSI agar dilution method in presence of Sulbactam
Prevotella nigrescens = test: Antimicrobial activity in Prevotella nigrescens by CLSI agar dilution method in presence of Sulbactam
[Clostridium] innocuum = Antimicrobial activity in Clostridium innocuum by CLSI agar dilution method in presence of Sulbactam
Prevotella bergensis = test: Antimicrobial activity in Prevotella bergensis by CLSI agar dilution method in presence of Sulbactam; conditions: Hallella bergensis
Prevotella bivia = test: Antimicrobial activity in Prevotella bivia by CLSI agar dilution method in presence of Sulbactam
Bacteroides fragilis = test: Antimicrobial activity in Bacteroides fragilis by CLSI agar dilution method in presence of Sulbactam
[2] = tested on: Paraclostridium bifermentans; test: Antimicrobial activity in Clostridium bifermentans by CLSI agar dilution method in presence of Sulbactam
Clostridioides difficile = test: Antimicrobial activity in Clostridium difficile by CLSI agar dilution method in presence of Sulbactam
Prevotella salivae = test: Antimicrobial activity in Prevotella salivae by CLSI agar dilution method in presence of Sulbactam; conditions: Segatella salivae
[3] = tested on: Fusobacterium necrophorum; test: Antimicrobial activity in Fusobacterium necrophorum by CLSI agar dilution method in presence of Sulbactam
[4] = tested on: Paeniclostridium sordellii; test: Antimicrobial activity in Clostridium sordellii by CLSI agar dilution method in presence of Sulbactam; conditions: Paraclostridium sordellii
Eggerthella lenta = test: Antimicrobial activity in Eggerthella lenta by CLSI agar dilution method in presence of Sulbactam
Fusobacterium mortiferum = test: Antimicrobial activity in Fusobacterium mortiferum by CLSI agar dilution method in presence of Sulbactam
Prevotella disiens = test: Antimicrobial activity in Prevotella disiens by CLSI agar dilution method in presence of Sulbactam
Parvimonas micra = test: Antimicrobial activity in Micromonas micros by CLSI agar dilution method in presence of Sulbactam
Anaerococcus tetradius = test: Antimicrobial activity in Anaerococcus tetradius by CLSI agar dilution method in presence of Sulbactam
Fusobacterium nucleatum = test: Antimicrobial activity in Fusobacterium nucleatum by CLSI agar dilution method in presence of Sulbactam
[5] = tested on: Peptostreptococcus anaerobius; test: Antimicrobial activity in Peptostreptococcus anaerobius by CLSI agar dilution method in presence of Sulbactam
Prevotella corporis = test: Antimicrobial activity in Prevotella corporis by CLSI agar dilution method in presence of Sulbactam
Prevotella sp. = test: Antimicrobial activity in Prevotella sp.by CLSI agar dilution method in presence of Sulbactam
Bacteroides stercoris = test: Antimicrobial activity in Bacteroides stercoris by CLSI agar dilution method in presence of Sulbactam
Prevotella buccae = test: Antimicrobial activity in Prevotella buccae by CLSI agar dilution method in presence of Sulbactam; conditions: Segatella buccae
[6] = tested on: Parabacteroides distasonis; test: Antimicrobial activity in Bacteroides distasonis by CLSI agar dilution method in presence of Sulbactam
Thomasclavelia ramosa = test: Antimicrobial activity in Clostridium ramosum by CLSI agar dilution method in presence of Sulbactam
[7] = tested on: Enterocloster clostridioformis; test: Antimicrobial activity in Clostridium clostridioforme by CLSI agar dilution method in presence of Sulbactam
Clostridium tertium = test: Antimicrobial activity in Clostridium tertium by CLSI agar dilution method in presence of Sulbactam
Tissierella praeacuta = test: Antimicrobial activity in Clostridium hastiforme by CLSI agar dilution method in presence of Sulbactam
[8] = tested on: Porphyromonas asaccharolytica; test: Antimicrobial activity in Porphyromonas asaccharolytica by CLSI agar dilution method in presence of Sulbactam
Bifidobacterium = test: Antimicrobial activity in Bifidobacterium by CLSI agar dilution method in presence of Sulbactam
Clostridium perfringens = test: Antimicrobial activity in Clostridium perfringens by CLSI agar dilution method in presence of Sulbactam
Prevotella veroralis = test: Antimicrobial activity in Prevotella veroralis by CLSI agar dilution method in presence of Sulbactam
Cutibacterium acnes = test: Antimicrobial activity in Propionibacterium acnes by CLSI agar dilution method in presence of Sulbactam
[9] = tested on: Prevotella melaninogenica; test: Antimicrobial activity in Prevotella melaninogenica by CLSI agar dilution method in presence of Sulbactam
Lactobacillus = test: Antimicrobial activity in Lactobacillus by CLSI agar dilution method in presence of Sulbactam
Prevotella intermedia = test: Antimicrobial activity in Prevotella intermedia by CLSI agar dilution method in presence of Sulbactam
Phocaeicola vulgatus = test: Antimicrobial activity in Bacteroides vulgatus by CLSI agar dilution method in presence of Sulbactam
Hoylesella oralis = test: Antimicrobial activity in Prevotella oralis group by CLSI agar dilution method in presence of Sulbactam
Anaerococcus prevotii = test: Antimicrobial activity in Anaerococcus prevotii by CLSI agar dilution method in presence of Sulbactam
Actinomyces = test: Antimicrobial activity in Actinomyces by CLSI agar dilution method in presence of Sulbactam
Clostridium cadaveris = test: Antimicrobial activity in Clostridium cadaveris by CLSI agar dilution method in presence of Sulbactam
Bacteroides uniformis = test: Antimicrobial activity in Bacteroides uniformis by CLSI agar dilution method in presence of Sulbactam
Porphyromonas gingivalis = test: Antimicrobial activity in Porphyromonas gingivalis by CLSI agar dilution method in presence of Sulbactam
[10] = tested on: Bacteroides thetaiotaomicron; test: Antimicrobial activity in Bacteroides thetaiotaomicron by CLSI agar dilution method in presence of Sulbactam
Prevotella baroniae = test: Antimicrobial activity in Prevotella baroniae by CLSI agar dilution method in presence of Sulbactam; conditions: Segatella baroniae
Hoylesella loescheii = test: Antimicrobial activity in Prevotella loescheii by CLSI agar dilution method in presence of Sulbactam

With CC1(C)S[C@@H]2[C@H](NC(=O)[C@H](N)c3ccccc3)C(=O)N2[C@H]1C(=O)O [AMPICILLIN] the MIC50 (Fusobacterium varium) was 2 µg/mL, the MIC90 (Fusobacterium varium) was 2 µg/mL and the MIC (Clostridium butyricum) was 1 µg/mL. The MIC [1] was no more than 0.125 µg/mL, the MIC50 [1] was no more than 0.125 µg/mL and the MIC (Bacteroides ovatus) was 1 µg/mL. It also gave an MIC50 (Bacteroides ovatus) of 1 µg/mL, an MIC90 (Bacteroides ovatus) of 4 µg/mL and an MIC50 (Prevotella denticola) of 0.5 µg/mL. It also gave an MIC90 (Prevotella denticola) of 2 µg/mL, an MIC50 (Clostridium sp.) of 0.25 µg/mL and an MIC90 (Clostridium sp.) of 0.5 µg/mL. For the same compound, the MIC50 (Finegoldia magna) was 0.25 µg/mL, the MIC90 (Finegoldia magna) was 0.5 µg/mL and the MIC50 (Prevotella nigrescens) was 0.25 µg/mL. For the same compound, the MIC90 (Prevotella nigrescens) was 0.5 µg/mL, the MIC ([Clostridium] innocuum) was no more than 0.125 µg/mL and the MIC (Prevotella bergensis) was 1 µg/mL. For the same compound, the MIC50 (Prevotella bivia) was 1 µg/mL, the MIC90 (Prevotella bivia) was 4 µg/mL and the MIC50 (Bacteroides fragilis) was 1 µg/mL. For the same compound, the MIC90 (Bacteroides fragilis) was 8 µg/mL, the MIC [2] was 0.5 µg/mL and the MIC50 (Clostridioides difficile) was 2 µg/mL. The MIC90 (Clostridioides difficile) was 2 µg/mL, the MIC (Prevotella salivae) was no more than 0.125 µg/mL and the MIC [3] was no more than 0.125 µg/mL. The MIC50 [3] was no more than 0.125 µg/mL, the MIC [4] was no more than 0.125 µg/mL and the MIC50 (Eggerthella lenta) was 1 µg/mL. The MIC90 (Eggerthella lenta) was 2 µg/mL, the MIC50 (Fusobacterium mortiferum) was 1 µg/mL and the MIC90 (Fusobacterium mortiferum) was greater than 32 µg/mL. The MIC (Prevotella disiens) was no more than 0.125 µg/mL, the MIC50 (Prevotella disiens) was 0.25 µg/mL and the MIC (Parvimonas micra) was no more than 0.125 µg/mL. It also gave an MIC50 (Parvimonas micra) of no more than 0.125 µg/mL, an MIC90 (Parvimonas micra) of 1 µg/mL and an MIC (Anaerococcus tetradius) of no more than 0.125 µg/mL. The MIC50 (Anaerococcus tetradius) was no more than 0.125 µg/mL, the MIC90 (Anaerococcus tetradius) was no more than 0.125 µg/mL and the MIC (Fusobacterium nucleatum) was no more than 0.125 µg/mL. It also gave an MIC50 (Fusobacterium nucleatum) of no more than 0.125 µg/mL, an MIC90 (Fusobacterium nucleatum) of no more than 0.125 µg/mL and an MIC50 [5] of 0.25 µg/mL. The MIC90 [5] was 16 µg/mL, the MIC (Prevotella corporis) was no more than 0.125 µg/mL and the MIC50 (Prevotella corporis) was no more than 0.125 µg/mL. The MIC (Prevotella sp.) was no more than 0.125 µg/mL, the MIC (Bacteroides stercoris) was 1 µg/mL and the MIC50 (Bacteroides stercoris) was 2 µg/mL. It also gave an MIC50 (Prevotella buccae) of 0.25 µg/mL, an MIC90 (Prevotella buccae) of 2 µg/mL and an MIC50 [6] of 8 µg/mL. For the same compound, the MIC90 [6] was 32 µg/mL, the MIC (Thomasclavelia ramosa) was no more than 0.125 µg/mL and the MIC [7] was 1 µg/mL. For the same compound, the MIC (Clostridium tertium) was 0.25 µg/mL, the MIC50 (Clostridium tertium) was 0.25 µg/mL and the MIC (Tissierella praeacuta) was 1 µg/mL. The MIC [8] was no more than 0.125 µg/mL, the MIC (Bifidobacterium) was no more than 0.125 µg/mL and the MIC50 (Bifidobacterium) was no more than 0.125 µg/mL. The MIC90 (Bifidobacterium) was 0.25 µg/mL, the MIC (Clostridium perfringens) was no more than 0.125 µg/mL and the MIC50 (Clostridium perfringens) was no more than 0.125 µg/mL. The MIC90 (Clostridium perfringens) was 0.25 µg/mL, the MIC (Prevotella veroralis) was no more than 0.125 µg/mL and the MIC (Cutibacterium acnes) was no more than 0.125 µg/mL. For the same compound, the MIC50 (Cutibacterium acnes) was no more than 0.125 µg/mL, the MIC90 (Cutibacterium acnes) was 0.25 µg/mL and the MIC50 [9] was 0.5 µg/mL. It also gave an MIC90 [9] of 2 µg/mL, an MIC50 (Lactobacillus) of 1 µg/mL and an MIC90 (Lactobacillus) of 1 µg/mL. The MIC50 (Prevotella intermedia) was 0.25 µg/mL, the MIC90 (Prevotella intermedia) was 0.5 µg/mL and the MIC50 (Phocaeicola vulgatus) was 2 µg/mL. It also gave an MIC90 (Phocaeicola vulgatus) of 16 µg/mL, an MIC (Hoylesella oralis) of no more than 0.125 µg/mL and an MIC (Anaerococcus prevotii) of no more than 0.125 µg/mL. For the same compound, the MIC (Actinomyces) was no more than 0.125 µg/mL, the MIC50 (Actinomyces) was 0.25 µg/mL and the MIC (Clostridium cadaveris) was no more than 0.125 µg/mL. The MIC (Bacteroides uniformis) was 1 µg/mL, the MIC50 (Bacteroides uniformis) was 1 µg/mL and the MIC (Porphyromonas gingivalis) was no more than 0.125 µg/mL. It also gave an MIC50 [10] of 2 µg/mL, an MIC90 [10] of 8 µg/mL and an MIC (Prevotella baroniae) of no more than 0.125 µg/mL. For the same compound, the MIC (Hoylesella loescheii) was 0.5 µg/mL.
